# Experimental data: ChEMBL document CHEMBL1201862, “PubChem BioAssay data set” (2004)
# Where a name gives a salt, the structure may show the parent alone. Calls of active or inactive are those of the source.
# Columns and labels:
# [1] = fluconazole-exposed Candida albicans growth modulators – fluorescence, retest, confirmation (AID 2467); format: functional, cell-based
# [2] = NIH-3T3 fibroblast cytotoxicity, dose response, cytotoxicity control, cell-based, fluorescence, Alamar Blue, secondary assay (AID 2327); format: functional;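 note: NIH-3T3 mouse fibroblasts cultured with fluconazole at 8 µg/mL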
# [3] = target: Luciferin 4-monooxygenase (Photinus pyralis, UniProt P08659); assay: inhibition of purified Photinus pyralis luciferase – biochemical, luminescence, dose response (AID 1891)
# Sequence of Luciferin 4-monooxygenase (P08659 whole entry): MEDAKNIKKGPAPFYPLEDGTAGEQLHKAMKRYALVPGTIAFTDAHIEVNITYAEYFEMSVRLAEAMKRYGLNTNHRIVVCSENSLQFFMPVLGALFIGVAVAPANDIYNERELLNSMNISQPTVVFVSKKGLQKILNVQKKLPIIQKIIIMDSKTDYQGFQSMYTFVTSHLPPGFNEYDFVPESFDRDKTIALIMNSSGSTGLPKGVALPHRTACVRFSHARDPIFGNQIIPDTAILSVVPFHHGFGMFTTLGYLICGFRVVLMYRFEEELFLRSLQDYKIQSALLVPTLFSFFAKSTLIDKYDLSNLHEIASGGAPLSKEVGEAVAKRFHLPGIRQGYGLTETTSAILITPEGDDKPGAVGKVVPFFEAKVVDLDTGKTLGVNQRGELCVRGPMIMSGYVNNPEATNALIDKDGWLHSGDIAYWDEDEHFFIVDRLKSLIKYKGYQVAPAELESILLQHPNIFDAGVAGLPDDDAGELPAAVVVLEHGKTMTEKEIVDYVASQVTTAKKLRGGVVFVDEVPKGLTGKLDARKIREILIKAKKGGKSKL
# [4] = Luminescence Cell-Based Dose Confirmation HTS to Identify Inhibitors of Platelet Dense Granule Release. [Related pubchem assays: 1663 (Primary HTS), 1678 (Summary of Project)]; format: functional
# [5] = target: T1, Heat shock factor protein 1 (Mus musculus, UniProt P38532); assay: enhancement of HSF1-driven luciferase signal – cell-based, NIH3T3, luminescence, dose retest, confirmation (AID 435004); format: functional;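 note: stress induced by proteasome inhibitor MG132 added 30 min after compound; luciferase reporter driven by HSF1 response element in NIH3T3 cells; actives raise luminescence as potentiators of the MG132 stress response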
# T1 sequence (P38532 whole entry): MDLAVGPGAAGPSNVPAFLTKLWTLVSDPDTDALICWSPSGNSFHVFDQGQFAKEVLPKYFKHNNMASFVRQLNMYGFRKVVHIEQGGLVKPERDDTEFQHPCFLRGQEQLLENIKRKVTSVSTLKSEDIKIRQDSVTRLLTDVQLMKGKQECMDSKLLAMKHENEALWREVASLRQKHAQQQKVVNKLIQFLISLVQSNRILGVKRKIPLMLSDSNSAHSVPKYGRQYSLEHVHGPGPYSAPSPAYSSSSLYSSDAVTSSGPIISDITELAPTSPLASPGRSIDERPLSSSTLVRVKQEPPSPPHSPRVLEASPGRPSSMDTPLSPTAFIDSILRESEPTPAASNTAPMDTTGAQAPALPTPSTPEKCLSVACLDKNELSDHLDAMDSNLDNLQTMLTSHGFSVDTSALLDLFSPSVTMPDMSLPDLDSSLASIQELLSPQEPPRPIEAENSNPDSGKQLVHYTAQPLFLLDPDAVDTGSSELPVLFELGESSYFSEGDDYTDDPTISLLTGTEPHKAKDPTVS
# Streptococcus = assay: GAS UMAA2166 growth inhibition – luminescence, BacTiterGlo, counter-screen for streptokinase expression inhibitor project, dose response (AID 1915); format: functional, organism-based;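 note: potency for reduction of bacterial viability or growth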
# Streptokinase A = target: T2, Streptokinase A (Streptococcus pyogenes serotype M1, UniProt P10520); assay: viability-normalized secreted streptokinase activity reduction – plasminogen activation absorbance, OD405, dose response (AID 1914); format: functional, Streptococcus pyogenes M1 GAS;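 note: secreted streptokinase activity via plasminogen activation per viability signal from cell pellet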
# T2 sequence (P10520 whole entry): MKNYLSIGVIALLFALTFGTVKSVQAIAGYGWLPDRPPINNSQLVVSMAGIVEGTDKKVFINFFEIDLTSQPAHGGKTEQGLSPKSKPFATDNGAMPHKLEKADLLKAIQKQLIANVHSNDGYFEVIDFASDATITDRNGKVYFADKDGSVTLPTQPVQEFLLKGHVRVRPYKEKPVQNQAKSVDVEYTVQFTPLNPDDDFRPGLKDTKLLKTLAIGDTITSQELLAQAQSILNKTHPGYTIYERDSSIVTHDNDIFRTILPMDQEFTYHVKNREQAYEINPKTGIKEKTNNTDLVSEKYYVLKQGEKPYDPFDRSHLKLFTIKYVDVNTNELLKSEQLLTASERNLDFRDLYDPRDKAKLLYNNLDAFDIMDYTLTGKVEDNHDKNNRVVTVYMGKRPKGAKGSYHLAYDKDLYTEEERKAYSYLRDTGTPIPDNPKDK
# [6] = target: T3, Corticotropin-releasing factor receptor 2/Corticotropin-releasing factor-binding protein (Homo sapiens, UniProt P24387+Q13324); assay: activators of CRF receptor 2 with binding protein – uHTS hits, confirmation (AID 602473); format: functional; conditions: read-out: EC50_Mean
# T3 sequence (Q13324 whole entry): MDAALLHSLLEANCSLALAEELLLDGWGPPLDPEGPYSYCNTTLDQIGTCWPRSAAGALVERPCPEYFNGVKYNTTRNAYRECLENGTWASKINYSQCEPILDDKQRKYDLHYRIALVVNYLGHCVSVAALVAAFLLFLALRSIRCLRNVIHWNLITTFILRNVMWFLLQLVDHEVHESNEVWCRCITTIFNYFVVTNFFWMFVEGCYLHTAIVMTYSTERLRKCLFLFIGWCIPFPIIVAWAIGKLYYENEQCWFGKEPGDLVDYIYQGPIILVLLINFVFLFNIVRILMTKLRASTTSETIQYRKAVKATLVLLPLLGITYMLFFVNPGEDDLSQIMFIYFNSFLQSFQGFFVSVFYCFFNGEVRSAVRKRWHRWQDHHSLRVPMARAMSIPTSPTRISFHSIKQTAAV
# T3 sequence (P24387 whole entry): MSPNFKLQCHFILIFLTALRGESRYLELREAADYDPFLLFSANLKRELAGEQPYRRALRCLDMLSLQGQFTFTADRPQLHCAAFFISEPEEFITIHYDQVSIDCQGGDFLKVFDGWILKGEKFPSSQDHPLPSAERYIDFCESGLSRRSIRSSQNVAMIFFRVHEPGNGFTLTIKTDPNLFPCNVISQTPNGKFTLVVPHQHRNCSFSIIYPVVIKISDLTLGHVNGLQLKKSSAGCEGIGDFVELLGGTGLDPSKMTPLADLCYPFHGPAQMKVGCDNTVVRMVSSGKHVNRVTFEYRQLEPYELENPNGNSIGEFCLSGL
# [7] = tested on: Streptococcus sp. 'group A'; assay: Streptococcus pyogenes SK(-)GAS viability under kanamycin – luminescence, BacTiterGlo, confirmation, counter-screen for streptokinase expression inhibitor project, dose response (AID 1900); format: functional, organism-based
# Cytochrome P450 2C19 = Cytochrome P450 2C19 (Homo sapiens, UniProt P33261); assay: Cytochrome panel assay with activity outcomes. Panel member name: p450-cyp2c19 Compounds with AC50 equal or less than 10 uM are considered active; format: functional
# Sequence of Cytochrome P450 2C19 (P33261 whole entry): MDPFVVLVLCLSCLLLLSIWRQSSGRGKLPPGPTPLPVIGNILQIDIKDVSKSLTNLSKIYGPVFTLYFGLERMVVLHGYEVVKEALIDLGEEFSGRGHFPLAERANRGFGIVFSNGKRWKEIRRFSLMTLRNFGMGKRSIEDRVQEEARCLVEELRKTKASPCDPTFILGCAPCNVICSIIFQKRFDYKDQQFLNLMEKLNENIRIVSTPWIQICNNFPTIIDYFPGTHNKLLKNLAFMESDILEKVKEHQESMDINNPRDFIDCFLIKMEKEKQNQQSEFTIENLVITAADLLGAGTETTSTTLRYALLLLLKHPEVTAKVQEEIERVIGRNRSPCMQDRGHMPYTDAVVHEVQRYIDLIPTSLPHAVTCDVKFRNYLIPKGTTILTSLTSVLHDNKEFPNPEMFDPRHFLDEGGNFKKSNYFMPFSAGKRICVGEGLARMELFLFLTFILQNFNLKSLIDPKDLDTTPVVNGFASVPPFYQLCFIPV
# Cytochrome P450 3A4 = Cytochrome P450 3A4 (Homo sapiens, UniProt P08684);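 note: CYP3A4 tested as one member of a cytochrome P450 panel screen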
# Sequence of Cytochrome P450 3A4 (P08684 whole entry): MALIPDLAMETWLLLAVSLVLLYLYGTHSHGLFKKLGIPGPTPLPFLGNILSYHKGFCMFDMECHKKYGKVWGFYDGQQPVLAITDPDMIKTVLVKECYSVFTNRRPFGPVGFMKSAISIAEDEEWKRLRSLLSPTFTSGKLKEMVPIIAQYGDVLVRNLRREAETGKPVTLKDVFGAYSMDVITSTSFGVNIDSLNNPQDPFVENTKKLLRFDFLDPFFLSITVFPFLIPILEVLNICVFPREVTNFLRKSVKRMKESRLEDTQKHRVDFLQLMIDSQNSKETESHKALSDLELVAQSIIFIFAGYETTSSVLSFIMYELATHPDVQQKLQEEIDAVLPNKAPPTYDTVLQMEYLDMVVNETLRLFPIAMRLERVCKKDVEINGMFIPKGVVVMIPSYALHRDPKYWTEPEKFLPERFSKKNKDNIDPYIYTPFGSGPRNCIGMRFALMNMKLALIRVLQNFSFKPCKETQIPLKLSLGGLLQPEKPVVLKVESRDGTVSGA
# Cytochrome P450 2D6 = Cytochrome P450 2D6 (Homo sapiens, UniProt P10635);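 note: CYP2D6 member of a cytochrome P450 panel assay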
# Sequence of Cytochrome P450 2D6 (P10635 whole entry): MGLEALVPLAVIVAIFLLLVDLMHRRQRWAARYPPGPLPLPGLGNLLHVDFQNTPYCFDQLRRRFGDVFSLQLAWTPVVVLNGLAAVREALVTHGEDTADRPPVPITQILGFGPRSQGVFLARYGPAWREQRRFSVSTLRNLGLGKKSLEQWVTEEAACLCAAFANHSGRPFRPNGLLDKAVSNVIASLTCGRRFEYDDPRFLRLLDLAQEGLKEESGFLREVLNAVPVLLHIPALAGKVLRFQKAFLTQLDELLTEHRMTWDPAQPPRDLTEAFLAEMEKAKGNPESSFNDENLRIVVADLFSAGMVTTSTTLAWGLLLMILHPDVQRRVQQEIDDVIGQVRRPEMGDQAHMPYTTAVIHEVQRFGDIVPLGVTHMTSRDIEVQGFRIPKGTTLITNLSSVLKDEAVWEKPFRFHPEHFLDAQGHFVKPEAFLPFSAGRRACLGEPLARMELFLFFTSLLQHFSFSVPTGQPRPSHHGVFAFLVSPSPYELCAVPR
# [8] = Luminescence Cell-Based Dose Retest to Confirm Inhibitors of Cancer Stem Cells. [Related pubchem assays (depositor defined):AID2717, AID2721]; format: functional; conditions: Homo sapiens
# Cytochrome P450 1A2 = target: T4, Cytochrome P450 1A2 (Homo sapiens, UniProt P05177);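 note: PubChem cytochrome P450 panel assay, CYP1A2 panel member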
# T4 sequence (P05177 whole entry): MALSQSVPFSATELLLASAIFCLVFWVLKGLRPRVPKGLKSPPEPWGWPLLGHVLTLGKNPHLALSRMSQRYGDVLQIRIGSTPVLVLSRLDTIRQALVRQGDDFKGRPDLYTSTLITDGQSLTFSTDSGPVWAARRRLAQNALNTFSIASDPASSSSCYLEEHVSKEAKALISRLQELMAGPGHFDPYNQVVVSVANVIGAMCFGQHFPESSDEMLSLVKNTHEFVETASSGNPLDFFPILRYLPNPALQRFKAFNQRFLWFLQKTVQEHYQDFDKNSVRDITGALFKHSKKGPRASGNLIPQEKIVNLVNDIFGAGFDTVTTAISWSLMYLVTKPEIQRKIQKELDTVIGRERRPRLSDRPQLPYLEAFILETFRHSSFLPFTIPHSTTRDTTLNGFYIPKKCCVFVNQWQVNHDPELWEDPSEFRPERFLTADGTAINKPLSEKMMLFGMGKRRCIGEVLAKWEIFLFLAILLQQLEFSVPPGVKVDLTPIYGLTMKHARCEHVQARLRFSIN
# [9] = non-specific 3'UTR reporter inhibition in Clone20-Shn3RL – cell-based, Renilla luciferase, cherry-picked, counter-screen for Shn3 inhibitor project, dose response (AID 624133); format: functional
# [10] = reduction of Shn3 3'UTR-driven luciferase in osteoblasts – cell-based, Clone20 osteoblasts, firefly luciferase, cherry-picked, dose response (AID 624132); format: functional;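 note: firefly luciferase luminescence from reporter carrying the Shn3 3'UTR in osteoblasts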
# [11] = P. falciparum Dd2 growth inhibitors, dose response, SYBR Green, cherry-picked samples (AID 1159567); format: functional, cell-based
Structure (SMILES),EC50 [3],EC50 [4],AC50 (Cytochrome P450 2C19; read-out: AC50),other results
O=C(NCc1ccc(Cl)cc1)c1n[nH]c([N+](=O)[O-])c1Cl,–,–,–,EC50 [1]: 0.123 µM (active); EC50 [2]: > 160 µM (inactive)
COc1ccc(CC(=O)Nc2ccc(-c3cn4ccccc4n3)cc2)cc1OC,> 112 µM (not active),> 112 µM (not active),–,–
CC(C(=O)Nc1ccccc1Br)N1c2cccc3cccc(c23)S1(=O)=O (stereo not drawn),–,–,–,EC50 [5]: > 260 µM (inactive)
O=C(CSc1nnc(SCc2ccc(F)cc2)s1)Nc1ccc(C(=O)O)cc1,> 112 µM (not active),39.4 µM (active),–,–
CC(C)OC(=O)c1c(NS(=O)(=O)c2ccccc2)sc2c1CCCC2,–,–,–,EC50 (Streptococcus): 7.93 µM (active); EC50 (Streptokinase A): > 150 µM (not active); EC50 [6]: 14 µM (active); EC50 [7]: 3.69 µM (active)
CCc1noc(N)c1C(=O)Nc1ccc(F)c(Cl)c1,–,–,15.8 µM (inconclusive),AC50 (Cytochrome P450 3A4): 15.8 µM (inconclusive); AC50 (Cytochrome P450 2D6): 22.4 µM (inconclusive)
N#Cc1ccc(CN2CC3(CCN(C(=O)c4cc(C(F)(F)F)cc(C(F)(F)F)c4)CC3)C2)cc1,–,–,39.8 µM (inconclusive),AC50 (Cytochrome P450 2D6): 31.6 µM (inconclusive)
Cc1cccc(NC(=O)CNC(=O)COC(=O)CCS(=O)(=O)c2ccccc2)c1C,> 112 µM (not active),> 112 µM (not active),–,–
COc1ccc2nc(NC(=O)CSc3nnc(C)s3)sc2c1,–,–,3.55 µM (inconclusive),AC50 (Cytochrome P450 3A4): 3.98 µM (inconclusive)
COc1ccc(-c2c[nH]nc2-c2ccc(OCc3ccc([N+](=O)[O-])cc3)cc2O)cc1OC,–,–,–,EC50 [5]: > 260 µM (inactive)
N=C(N)SCc1nc2ccccc2c(=O)n1-c1ccccc1Cl,–,–,10 µM (inconclusive),AC50 [8]: 6.37 µM (active); AC50 (Cytochrome P450 2D6): 0.316 µM (inconclusive)
O=C(CCC(=O)N1CCN(c2ccc(O)cc2)CC1)c1ccc(Br)cc1,–,–,–,EC50 [5]: > 260 µM (inactive); AC50 [8]: 6.98 µM (active)
O=C(OC1CCOC1=O)c1cc(Cl)ccc1[N+](=O)[O-] (stereo not drawn),–,–,–,EC50 [5]: > 260 µM (inactive)
CC(=O)Nc1ccc(NC(=O)c2ccccc2CC[N+](=O)[O-])cc1,–,–,0.355 µM (inconclusive),AC50 (Cytochrome P450 2D6): 14.1 µM (inconclusive)
Cc1cc(C)c(C)c(OCC(O)CN2CCN(c3ccccn3)CC2)c1 (stereo not drawn),> 112 µM (not active),> 112 µM (not active),–,–
CCOC(=O)c1ccccc1NC(=O)/C(C)=C/C(=O)O,–,–,39.8 µM (inconclusive),AC50 (Cytochrome P450 1A2): 20 µM (inconclusive)

Structure (SMILES),EC50 [3],EC50 [4],AC50 (Cytochrome P450 2C19; read-out: AC50),other results
O=C(CN1CCN(c2ccccc2)CC1)N1N=CCC1c1ccccc1 (stereo not drawn),> 112 µM (not active),> 112 µM (not active),–,–
O=C(NCC1(N2CCCCC2)CCCCC1)c1ccc(NS(=O)(=O)c2ccc(F)cc2)cc1,> 112 µM (not active),> 112 µM (not active),–,–
Cc1cc(-n2ccc(=O)[nH]c2=O)nc(-c2ccccc2)n1,> 112 µM (not active),15.4 µM (active),–,–
Cc1cc2c(ncn2C)c(NS(=O)(=O)c2cc(Cl)ccc2Cl)c1C,–,–,–,EC50 [5]: > 260 µM (inactive)
CC(=O)c1nn(-c2cccc(Br)c2)cc1C(=O)c1ccc(Cl)cc1,–,–,–,EC50 [5]: > 260 µM (inactive)
C=CCn1c(S)nnc1C1CCCCC1,–,–,–,EC50 [5]: > 260 µM (inactive)
COCCn1c(=O)c(-c2cn(C)c3ccccc23)nc2cnc(Oc3ccc(OC)cc3)nc21,–,–,15.8 µM (inconclusive),AC50 (Cytochrome P450 1A2): 2.51 µM (inconclusive)
COc1ccc(-c2nnc(-c3ccccc3)o2)cc1OC,> 112 µM (not active),72.5 µM (active),–,–
CC(C)CN1CCCC2(CCN(S(=O)(=O)c3ccccc3)CC2)C1,–,–,31.6 µM (inconclusive),–
Cc1c(OCC(=O)N2CCN(c3ccccc3)CC2)ccc2c3c(c(=O)oc12)CCCC3,> 112 µM (not active),> 112 µM (not active),–,–
Cc1ccc(CNC(=O)c2cc(-c3ccccc3C)nn2CC2CC(c3cccnc3)=NO2)cc1 (stereo not drawn),–,–,–,AC50 [9]: 29 µM (active); AC50 [10]: > 70 µM (inactive)
COc1ccc(NC(=O)COc2ccc(CNCCCN3CCOCC3)cc2OC)cc1.Cl,–,–,–,AC50 (Cytochrome P450 2C19): inconclusive
COc1ccc(NC(=O)NC2CC3CCCC(C2)N3Cc2ccccc2)cc1 (stereo not drawn),–,–,14.1 µM (inconclusive),AC50 (Cytochrome P450 2D6): 11.2 µM (inconclusive)
CN(C)c1ccc(/C=N/NC(=O)c2ccnn2C)cc1,6.24 µM (active),1.32 µM (active),–,–
CCS(=O)(=O)N1CC2(CN(Cc3ccccc3F)[C@@H](CO)c3[nH]c4cc(OC)ccc4c32)C1,–,–,–,AC50 [11]: 9.94 µM (active)
CN1CCN([C@@H](c2ccccc2)c2ccc(Cl)cc2)CC1 [CHLORCYCLIZINE HYDROCHLORIDE],–,–,3.98 µM (inconclusive),–
